The target in this test is T1, Human thrombin (Homo sapiens, UniProt P00734).
T1 construct: purchased Haematologic Technologies Inc
Description: Thrombin protease activity inhibition, chromogenic substrate S-2238. It is filed as biochemical. As to conditions: 3 nM thrombin, 125 μM S-2238, 10 min pre-incubation, RT. In a few lines: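 Thrombin at 3 nM final in 0.05 M Tris pH 7.4, 0.015 M NaCl, 0.01% PEG-8000, at room temperature; compounds as ten-point three-fold dilutions.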

pIC50: −log10 of the molar value. Counter-ions that a name gives are not always drawn.

One may read the pIC50 as the IC50 on a negative log10 scale, so that one unit is a factor of ten. Low values mean a large IC50, high ones a small IC50. Compound `Clc1ccc(CNc2cc(C3CCN(Cc4ncco4)CC3)n[nH]2)s1` [Entry 193, N-[(5-chlorothiophen-2-yl)methyl]-3-[1-(1,3-oxazol-2-ylmethyl)piperidin-4-yl]-1H-pyrazol-5-amine] showed a negative logarithm of the IC50 (pIC50) of less than 4.00.
For `Clc1ccc(CNc2cc(C3CCOCC3)n[nH]2)s1` [Entry 182, N-[(5-chlorothiophen-2-yl)methyl]-3-(oxan-4-yl)-1H-pyrazol-5-amine], the pIC50 is less than 4.00.
In the case of `O=C(C1CCCC1)n1nc(C2CCNCC2)cc1NCc1ccc(Cl)s1` [Entry 170, N-[(5-chlorothiophen-2-yl)methyl]-1-cyclopentanecarbonyl-3-(piperidin-4-yl)-1H-pyrazol-5-amine hydrochloride], the negative-log IC50 (pIC50) is less than 4.00.
In turn, `CC(C)(CO)C(=O)n1nc(C2CCN(CC(=O)O)CC2)cc1NCc1ccc(Cl)s1` [Entry 110, 2-[4-(5-[(5-chlorothiophen-2-yl)methyl]amino-1-(3-hydroxy-2,2-dimethylpropanoyl)-1H-pyrazol-3-yl)piperidin-1-yl]acetic acid] had a negative logarithm of the IC50 (pIC50) of 6.00 to 7.00.
Take `CC1(C(=O)n2nc(C3CCCNC3)cc2NCc2ccc(Cl)s2)CCOCC1` (stereo not drawn) [Entry 164, N-[(5-chlorothiophen-2-yl)methyl]-1-(4-methyloxane-4-carbonyl)-3-(piperidin-3-yl)-1H-pyrazol-5-amine]: the negative-log IC50 (pIC50) is 6.00 to 7.00.
`CS(=O)(=O)N1C2CCC1CC(c1cc(NCc3ccc(Cl)s3)n(C(=O)c3cscn3)n1)C2` (stereo not drawn) [Entry 225, N-[(5-chlorothiophen-2-yl)methyl]-3-8-methanesulfonyl-8-azabicyclo[3.2.1]octan-3-yl-1-(1,3-thiazole-4-carbonyl)-1H-pyrazol-5-amine]: the pIC50 was more than 7.00.
Consider `CC(C)(C)OC(=O)N1CCCC(c2cc(NCc3ccc(Cl)s3)n(C(=O)c3ccsc3)n2)C1` (stereo not drawn) [Entry 289, tert-butyl 3-(5-[(5-chlorothiophen-2-yl)methyl]amino-1-(thiophene-3-carbonyl)-1H-pyrazol-3-yl)piperidine-1-carboxylate], for which the pIC50 was more than 7.00.
In turn, `CN(C)C(=O)N1CCC(c2cc(NCc3ccc(Cl)s3)n(C(=O)C(C)(C)CO)n2)CC1` [Entry 134, 4-(5-[(5-chlorothiophen-2-yl)methyl]amino-1-(3-hydroxy-2,2-dimethylpropanoyl)-1H-pyrazol-3-yl)-N,N-dimethylpiperidine-1-carboxamide] had a pIC50 of more than 7.00.
Take `CC(C)(C)OC(=O)N1CCCC(C)(c2cc(NCc3ccc(Cl)s3)n(C(=O)C(C)(C)CO)n2)C1` (stereo not drawn) [Entry 282, tert-butyl 3-(5-[(5-chlorothiophen-2-yl)methyl]amino-1-(3-hydroxy-2,2-dimethylpropanoyl)-1H-pyrazol-3-yl)-3-methylpiperidine-1-carboxylate]: the pIC50 is more than 7.00.
Take `CS(=O)(=O)N1CCNC(c2cc(NCc3ccc(Cl)s3)[nH]n2)C1` (stereo not drawn) [Entry 179, N-[(5-chlorothiophen-2-yl)methyl]-3-(4-methanesulfonylpiperazin-2-yl)-1H-pyrazol-5-amine]: the pIC50 was less than 4.00.
Take `COCC(C)(C)C(=O)n1nc(C2CCCN(C(=O)OC(C)(C)C)C2)cc1NCc1ccc(Cl)s1` (stereo not drawn) [Entry 285, tert-butyl 3-(5-[(5-chlorothiophen-2-yl)methyl]amino-1-(3-methoxy-2,2-dimethylpropanoyl)-1H-pyrazol-3-yl)piperidine-1-carboxylate]: the pIC50 is more than 7.00.
On to `O=C(c1cccc2c1OCCO2)n1nc(C2CNC2)cc1NCc1ccc(Cl)s1` [Entry 126, 3-(azetidin-3-yl)-N-[(5-chlorothiophen-2-yl)methyl]-1-(2,3-dihydro-1,4-benzodioxine-5-carbonyl)-1H-pyrazol-5-amine; trifluoroacetic acid], for which the pIC50 is 5.00 to 6.00.
The compound `Clc1ccc(CNc2cc(C3CCN(Cc4cnco4)CC3)n[nH]2)s1` [Entry 194, N-[(5-chlorothiophen-2-yl)methyl]-3-[1-(1,3-oxazol-5-ylmethyl)piperidin-4-yl]-1H-pyrazol-5-amine] gave a negative-log IC50 (pIC50) of less than 4.00.
As for `C=CCOC(=O)N1CCC(c2nn(C(=O)C(C)(C)C)c(NCc3ccc(Cl)s3)c2C#N)CC1` [Entry 267, prop-2-en-1-yl 4-(5-[(5-chlorothiophen-2-yl)methyl]amino-4-cyano-1-(2,2-dimethylpropanoyl)-1H-pyrazol-3-yl)piperidine-1-carboxylate], the negative logarithm of the IC50 (pIC50) is more than 7.00.
As to `CC(=O)N1CCC(c2cc(NCc3ccc(Cl)s3)n(C(=O)C(C)(C)C)n2)CC1` [Entry 94, 1-[3-(1-acetylpiperidin-4-yl)-5-[(5-chlorothiophen-2-yl)methyl]amino-1H-pyrazol-1-yl]-2,2-dimethylpropan-1-one], the negative-log IC50 (pIC50) was more than 7.00.
With `CN(C)S(=O)(=O)N1CCC(c2cc(NCc3ccc(Cl)s3)[nH]n2)CC1` [Entry 138, 4-(5-[(5-chlorothiophen-2-yl)methyl]amino-1H-pyrazol-3-yl)-N,N-dimethylpiperidine-1-sulfonamide] the figure was less than 4.00; with `Cc1c(C2CCN(C(=O)OC(C)(C)C)CC2)nn(C(=O)C(C)(C)C)c1NCc1ccc(Cl)s1` [Entry 293, tert-butyl 4-(5-[(5-chlorothiophen-2-yl)methyl]amino-1-(2,2-dimethylpropanoyl)-4-methyl-1H-pyrazol-3-yl)piperidine-1-carboxylate], 6.00 to 7.00.
Compound `COc1ccccc1C(=O)n1nc(C2(C)CCNC2=O)cc1NCc1ccc(Cl)s1` (stereo not drawn) [Entry 118, 3-(5-[(5-chlorothiophen-2-yl)methyl]amino-1-(2-methoxybenzoyl)-1H-pyrazol-3-yl)-3-methylpyrrolidin-2-one] showed a pIC50 of 6.00 to 7.00.
In the case of `CC(C)(C)C(=O)N1CC(c2cc(NCc3ccc(Cl)s3)n(C(=O)C(C)(C)C)n2)C1` [Entry 96, 1-[3-(5-[(5-chlorothiophen-2-yl)methyl]amino-1-(2,2-dimethylpropanoyl)-1H-pyrazol-3-yl)azetidin-1-yl]-2,2-dimethylpropan-1-one] it was 6.00 to 7.00; in that of `CN(C)C(=O)N1CCC(c2cc(NCc3ccc(Cl)s3)n(C(=O)N(C)C)n2)CC1` [Entry 136, 4-(5-[(5-chlorothiophen-2-yl)methyl]amino-1-(dimethylcarbamoyl)-1H-pyrazol-3-yl)-N,N-dimethylpiperidine-1-carboxamide], less than 4.00; in that of `CC(C)(C)C(=O)n1nc(C2(C)CCNC2=O)cc1NCc1ccc(Cl)s1` (stereo not drawn) [Entry 116, 3-(5-[(5-chlorothiophen-2-yl)methyl]amino-1-(2,2-dimethylpropanoyl)-1H-pyrazol-3-yl)-3-methylpyrrolidin-2-one], more than 7.00.
The compound `CC(C)(C)OC(=O)N1CCCC(c2cc(NCc3ccc(Cl)s3)n(C(=O)C(C)(C)C)n2)C1` (stereo not drawn) [Entry 279, tert-butyl 3-(5-[(5-chlorothiophen-2-yl)methyl]amino-1-(2,2-dimethylpropanoyl)-1H-pyrazol-3-yl)piperidine-1-carboxylate] had a pIC50 of more than 7.00.
Turning to `Clc1ccc(CNc2cc(C3CCN(Cc4ncno4)CC3)n[nH]2)s1` [Entry 192, N-[(5-chlorothiophen-2-yl)methyl]-3-[1-(1,2,4-oxadiazol-5-ylmethyl)piperidin-4-yl]-1H-pyrazol-5-amine], the negative-log IC50 (pIC50) is less than 4.00.
For `FC(F)(CN1CCC(c2cc(NCc3ccc(Cl)s3)[nH]n2)CC1)c1ccccn1` [Entry 222, N-[(5-chlorothiophen-2-yl)methyl]-3-1-[2,2-difluoro-2-(pyridin-2-yl)ethyl]piperidin-4-yl-1H-pyrazol-5-amine], the pIC50 was less than 4.00.

The values above are taken from patent US10532995B2, “Substituted pyrazole compounds as serine protease inhibitors” (VERSEON CORPORATION, priority 2015, dated 2020).
